Drawing on patent US8669065B1, “Methods for identifying molecules that modulate lipid binding sites of ion channels” (priority 2011, dated 2014), this text covers solubility for 1 compound.

This data set can be described thus: physchem. Particulars: water. From the text:
Most native lipids have long fatty acyl side chains rendering them insoluble and difficult to work with in an aqueous environment.

Values after ≈ are worked out from the molar mass of the structure shown.

Regarding `CCCCCCCC(=O)OC[C@H](COP(=O)(O)O)OC(=O)CCCCCCC` [C8-PA], the concentration in solution (solubility) came to 50 mM (≈ 21.2 mg/mL).
